pKi: −log10 of the molar value. Where two headings read alike, the source gives them in different places.
Assays:
Format in all cases: biochemical
PKC theta kinase = PKC theta kinase (Homo sapiens, UniProt Q04759); assay: PKC theta kinase inhibition, coupled-enzyme (NADH absorbance) assay, Ki; details: 240 μM ATP, 18 nM PKC theta kinase, 30° C.
Procedure, shortened: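 Coupled-enzyme kinase assay following NADH absorbance at 340 nm, in 100 mM HEPES pH 7.5, 10 mM MgCl2, 25 mM NaCl, 0.1 mM EDTA, 0.01% Brij. Compound in DMSO preincubated with enzyme 10 min at 30 °C. Ki from initial rates by non-linear regression.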

PKC delta kinase = PKC delta kinase (Homo sapiens, UniProt Q05655); assay: PKC delta kinase inhibition, coupled-enzyme (NADH absorbance) assay, Ki; details: 150 μM ATP, 46 nM PKC delta kinase, 30° C.
Procedure, shortened: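 PKC delta in 100 mM HEPES pH 7.5, 10 mM MgCl2, 25 mM NaCl, 0.1 mM EDTA, 0.01% Brij, equilibrated 10 min at 30° C with compound from DMSO stock. Started with ATP at 150 μM final; NADH-coupled absorbance at 340 nm followed 15 min at 30° C. Ki from initial rates by non-linear regression.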

PKC alpha kinase = PKC alpha kinase (Homo sapiens, UniProt P17252); assay: PKC alpha kinase inhibition, coupled-enzyme (NADH absorbance) assay, Ki; details: 130 μM ATP, 4.5 nM PKC alpha kinase, 30° C.
Procedure, shortened: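 Enzyme in 100 mM HEPES pH 7.5, 10 mM MgCl2, 100 μM CaCl2, 0.01% Brij, preincubated with compound 10 min at 30 °C. Reaction started with 130 μM ATP (final); NADH consumption followed at 340 nm for 15 min at 30 °C. Ki fitted by non-linear regression of initial rates.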

PKC delta kinase, sequence (Q05655 whole entry): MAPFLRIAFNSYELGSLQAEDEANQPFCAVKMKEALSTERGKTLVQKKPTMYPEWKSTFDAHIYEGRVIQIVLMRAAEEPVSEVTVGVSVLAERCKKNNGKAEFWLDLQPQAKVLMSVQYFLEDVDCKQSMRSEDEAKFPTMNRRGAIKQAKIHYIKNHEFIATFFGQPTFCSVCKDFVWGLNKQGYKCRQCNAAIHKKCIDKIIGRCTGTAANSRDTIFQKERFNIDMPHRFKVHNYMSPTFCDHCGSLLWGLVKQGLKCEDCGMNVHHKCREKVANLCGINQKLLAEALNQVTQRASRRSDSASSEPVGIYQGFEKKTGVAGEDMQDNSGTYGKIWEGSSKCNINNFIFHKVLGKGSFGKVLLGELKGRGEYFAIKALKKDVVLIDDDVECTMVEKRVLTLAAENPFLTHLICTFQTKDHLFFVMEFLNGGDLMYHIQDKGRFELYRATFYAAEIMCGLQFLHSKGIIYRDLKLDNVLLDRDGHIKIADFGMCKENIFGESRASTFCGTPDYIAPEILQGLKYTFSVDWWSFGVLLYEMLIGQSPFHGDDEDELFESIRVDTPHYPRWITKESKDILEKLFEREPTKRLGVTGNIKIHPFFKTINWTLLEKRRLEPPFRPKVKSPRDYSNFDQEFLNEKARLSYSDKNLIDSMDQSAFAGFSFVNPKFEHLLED
PKC theta kinase, sequence (Q04759 whole entry): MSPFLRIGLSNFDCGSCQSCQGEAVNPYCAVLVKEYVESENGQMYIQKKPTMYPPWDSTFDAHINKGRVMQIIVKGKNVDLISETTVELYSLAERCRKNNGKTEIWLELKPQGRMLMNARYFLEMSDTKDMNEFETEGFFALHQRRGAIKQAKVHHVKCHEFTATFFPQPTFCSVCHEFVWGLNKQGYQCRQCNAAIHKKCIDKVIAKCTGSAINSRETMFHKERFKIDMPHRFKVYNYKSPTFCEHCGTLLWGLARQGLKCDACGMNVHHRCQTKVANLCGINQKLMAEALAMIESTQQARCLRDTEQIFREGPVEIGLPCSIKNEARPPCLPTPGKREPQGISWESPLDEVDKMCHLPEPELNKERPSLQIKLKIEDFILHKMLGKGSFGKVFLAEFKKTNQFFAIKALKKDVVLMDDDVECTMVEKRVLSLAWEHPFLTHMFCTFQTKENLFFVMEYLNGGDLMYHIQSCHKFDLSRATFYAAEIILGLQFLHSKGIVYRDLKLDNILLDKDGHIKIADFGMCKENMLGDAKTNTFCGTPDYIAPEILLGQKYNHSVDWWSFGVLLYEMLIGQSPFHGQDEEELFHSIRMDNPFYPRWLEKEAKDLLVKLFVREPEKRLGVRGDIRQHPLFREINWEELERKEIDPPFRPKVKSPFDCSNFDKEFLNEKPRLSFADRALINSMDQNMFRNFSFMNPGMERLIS

| Structure (SMILES) | pKi (PKC theta kinase) | pKi (PKC delta kinase; read-out: Ki PKC delta) | pKi (PKC alpha kinase) | pKi (PKC delta kinase; Ki PKC delta) |
| --- | --- | --- | --- | --- |
| CC(C)CC1(O)CN(c2ccc(F)c(-c3n[nH]c4ncccc34)n2)CCC1C#N (stereo not drawn) [Compound 400] | > 7.30 | > 5.55 | < 5.90 |  |
| C=Cc1ccc(N2CCNCC2)nc1-c1n[nH]c2ncccc12 [Compound 52] | > 6.30 | > 5.55 | < 5.90 |  |
| Cc1ccccc1C1CN(c2ccc(C(F)(F)F)c(-c3n[nH]c4ncccc34)n2)CCN1 (stereo not drawn) [Compound 124] | > 6.30 | < 5.90 | < 5.90 |  |
| CC(C)CC1CN(c2ccc(F)c(-c3n[nH]c4ncccc34)n2)CCC1C#N (stereo not drawn) [Compound 370] | > 7.30 | > 5.55 | < 5.90 |  |
| O=C1CN(c2ccc(F)c(-c3n[nH]c4ncccc34)n2)CCN1 [Compound 255] | < 6.15 | < 5.90 | < 5.90 |  |
| CC(C)CC1(C)CN(c2nc(-c3n[nH]c4ncccc34)ccc2F)CCN1 (stereo not drawn) [Compound 132] | > 7.30 | > 6.30 | > 5.55 |  |
| Fc1ccc(N2CCN3CCCC3C2)nc1-c1n[nH]c2ncccc12 (stereo not drawn) [Compound 290] | > 6.30 | < 5.90 | < 5.90 |  |
| CC(C)(N)C1CCN(c2ccc(F)c(-c3n[nH]c4ncccc34)n2)C1 (stereo not drawn) [Compound 360] | > 6.30 | > 5.55 | < 5.90 |  |
| Fc1ccc(N2CCNC(CC(F)(F)F)C2)nc1-c1n[nH]c2ncccc12 (stereo not drawn) [Compound 206] | > 7.30 | > 5.55 | < 5.90 |  |
| CC(C)C(C)(O)C1CN(c2cccc(-c3n[nH]c4ncccc34)n2)CCN1 (stereo not drawn) [Compound 177] | > 9.00 | > 7.30 | > 5.55 |  |
| CC(C)C[C@H]1CN(c2ccc(F)c(-c3n[nH]c4ncccc34)n2)C[C@@H](C)N1 [Compound 183] | > 7.30 | > 6.30 | > 5.55 |  |
| Fc1ccc(N2CCNC3(CCC3)C2)nc1-c1n[nH]c2ncccc12 [Compound 188] | > 7.30 | > 6.30 | > 5.55 |  |
| Clc1ccc(N2CCNCC2)nc1-c1n[nH]c2ncccc12 [Compound 48] | > 6.30 | > 5.55 | > 5.55 |  |
| CC(C)CC1(CN)CN(c2ccc(C(F)(F)F)c(-c3n[nH]c4ncccc34)n2)CCO1 (stereo not drawn) [Compound 397] | > 6.30 | > 6.30 | > 5.55 |  |
| CCC(C)(C)C(N)C1CCCN(c2ccc(F)c(-c3n[nH]c4ncccc34)n2)C1 (stereo not drawn) [Compound 379] | > 6.30 | < 5.90 | < 5.90 |  |
| CO[C@H]1CN(c2ccc(C(F)(F)F)c(-c3n[nH]c4ncccc34)n2)CC[C@H]1N [Compound 384] | > 6.30 | < 5.90 | < 5.90 |  |
| CC(C)(C(N)C1CCCN(c2ccc(F)c(-c3n[nH]c4ncccc34)n2)C1)C(F)(F)F (stereo not drawn) [Compound 394] | > 6.30 | < 5.90 | < 5.90 |  |
| c1cc(-c2n[nH]c3ncccc23)nc(N2CCNC3(CCC3)C2)c1 [Compound 187] | > 7.30 | > 7.30 | > 6.30 |  |
| C[C@H]1CN(c2ccc(C(F)(F)F)c(-c3n[nH]c4ncccc34)n2)CCN1 [Compound 116] | > 6.30 | > 5.55 | < 5.90 |  |
| Fc1ccc(N2CCNCC2)nc1-c1n[nH]c2ncccc12 [Compound 88] | > 6.30 |  | < 5.90 | > 5.55 |
| CC(C)(C)C(N)C1CCCN(c2ccc(F)c(-c3n[nH]c4ncccc34)n2)C1 (stereo not drawn) [Compound 331] | > 6.30 | > 5.55 | < 5.90 |  |
| N#CCCC1CN(c2ccc(C(F)(F)F)c(-c3n[nH]c4ncccc34)n2)CCC1O (stereo not drawn) [Compound 459] | > 5.55 | < 5.90 | < 5.90 |  |
| CC(C)C(C)(O)C1CN(c2nc(-c3n[nH]c4ncccc34)ccc2F)CCN1 (stereo not drawn) [Compound 374] | > 7.30 | > 6.30 | < 5.90 |  |
| CC(C)CC1(C)CN(c2cccc(-c3n[nH]c4ncccc34)n2)CCC1N (stereo not drawn) [Compound 189] | > 7.30 | > 7.30 | > 6.30 |  |
| Cc1ccc(C2CN(c3ccc(C(F)(F)F)c(-c4n[nH]c5ncccc45)n3)CCN2)cc1 (stereo not drawn) [Compound 133] | > 6.30 | < 5.90 | < 5.90 |  |
| CCC(C)(O)C1CN(c2ccc(F)c(-c3n[nH]c4ncccc34)n2)CCN1 (stereo not drawn) [Compound 241] | > 7.30 | > 6.30 | > 5.55 |  |
| CC(C)C[C@@]1(F)CN(c2ccc(F)c(-c3n[nH]c4ncccc34)n2)CC[C@H]1O [Compound 199] | > 6.30 | < 5.90 | < 5.90 |  |
